Measured values taken from the supplement of paper PMC10307832.

Key:
Experiment in all cases: relative viability (nuclei count vs DMSO), 5 days (fraction); higher = more cells survive
BI-2536 + Vorinostat = compound: CC[C@@H]1C(=O)N(C)c2cnc(Nc3ccc(C(=O)NC4CCN(C)CC4)cc3OC)nc2N1C1CCCC1 [BI-2536] + O=C(CCCCCCC(=O)Nc1ccccc1)NO [Vorinostat] (partner 1 µM)
Summary of the method: (§1)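 Cells from lung cancer lines were seeded into 1536-well plates and, one day later, dosed by pin tool. Treatments were either a single drug or a fixed dose of an anchor drug with five library-drug doses (not always all listed) in √10 steps. After 5 days, nuclei were stained in a one-step fixation (final 0.05% Triton X-100, 1% formaldehyde, 1 ug/ml Hoechst) and counted on 4× images, and relative viability is the treated-to-vehicle nuclei ratio, as the median of duplicate plates.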

[1] = compound: CC1CC(=O)N(C2=CN=C(N=C2N1C3CCCC3)NC4=C(C=C(C=C4)C(=O)NC5CCN(CC5)C)OC)C [NPK76-II-72-1] + N=C(N)NC(=N)NCCc1ccccc1 [Phenformin] (partner 250 µM)
Summary of the method: as §1

[2] = compound: CC1CC(=O)N(C2=CN=C(N=C2N1C3CCCC3)NC4=C(C=C(C=C4)C(=O)NC5CCN(CC5)C)OC)C [NPK76-II-72-1] + CC(=O)Nc1cccc(-n2c(=O)n(C3CC3)c(=O)c3c(Nc4ccc(I)cc4F)n(C)c(=O)c(C)c32)c1 [Trametinib] (partner 0.02 µM)
Summary of the method: as §1

[3] = compound: CC1CC(=O)N(C2=CN=C(N=C2N1C3CCCC3)NC4=C(C=C(C=C4)C(=O)NC5CCN(CC5)C)OC)C [NPK76-II-72-1] + Cc1nc(NC(=O)N2CCC[C@H]2C(N)=O)sc1-c1ccnc(C(C)(C)C(F)(F)F)c1 [Alpelisib] (partner 2 µM)
Summary of the method: as §1

Cell Line	relative viability (BI-2536 + Vorinostat; first compound 0.01 µM)	relative viability (BI-2536 + Vorinostat; first compound 0.03162 µM)	relative viability (BI-2536 + Vorinostat; first compound 0.1 µM)	relative viability (BI-2536 + Vorinostat; first compound 0.3162 µM)	relative viability (BI-2536 + Vorinostat; first compound 1 µM)	relative viability ([1]; first compound 0.01 µM)	relative viability ([1]; first compound 0.03162 µM)	relative viability ([1]; first compound 0.1 µM)	relative viability ([1]; first compound 0.3162 µM)	relative viability ([1]; first compound 1 µM)	relative viability ([2]; first compound 0.01 µM)	relative viability ([2]; first compound 0.03162 µM)	relative viability ([2]; first compound 0.1 µM)	relative viability ([2]; first compound 0.3162 µM)	relative viability ([2]; first compound 1 µM)	relative viability ([3]; first compound 0.01 µM)	relative viability ([3]; first compound 0.03162 µM)	relative viability ([3]; first compound 0.3162 µM)	relative viability ([3]; first compound 1 µM)	relative viability ([3]; first compound 0.1 µM)
NCI-H23	0.527	0.555	0.133	0.133	0.157	0.752	0.788	0.684	0.718	0.85	0.361	0.424	0.271	0.342	0.38	0.759	0.871	0.657	0.804	–
NCI-H322M	0.926	0.829	0.641	0.45	0.422	0.706	0.935	0.778	0.817	0.829	0.531	0.492	0.472	0.483	0.557	0.781	0.73	0.922	0.818	0.766
NCI-H358	0.507	0.138	0.0931	0.0884	0.0847	0.324	0.382	0.32	–	0.372	0.14	0.145	0.204	–	0.151	0.876	0.827	0.508	1.01	0.884
NCI-H441	0.668	0.601	0.263	0.212	0.178	0.945	0.917	0.876	0.672	0.886	0.396	0.507	0.429	0.497	0.54	0.536	0.648	0.767	0.901	0.866
NCI-H460	0.735	1.07	0.119	0.0148	0.014	0.501	0.512	0.582	0.522	0.522	0.271	0.14	0.141	0.123	0.174	0.469	0.541	0.442	0.497	0.478
NCI-H520	0.599	0.25	0.24	0.181	0.179	0.526	0.632	0.46	0.519	0.598	0.646	0.687	0.676	0.688	0.769	0.918	1.03	0.859	0.829	0.909
NCI-H596	0.644	0.664	0.551	0.228	0.206	0.649	0.777	0.789	0.782	0.774	0.764	0.787	0.776	0.82	0.803	0.523	0.448	0.479	0.498	0.405
NCI-H647	0.526	0.372	0.236	0.086	0.0837	0.46	0.676	0.629	0.623	0.533	0.443	0.436	0.418	0.527	0.54	0.985	1.28	1.02	1.18	–
NCI-H650	0.418	0.479	0.145	0.154	0.128	0.441	0.457	0.454	0.381	0.486	1.14	0.996	0.957	0.997	1.01	1.15	1.23	–	1.13	0.952
NCI-H661	0.714	0.323	0.292	0.302	0.306	0.278	0.255	0.282	0.279	0.245	0.622	0.685	0.589	0.526	0.611	0.609	0.665	0.451	0.797	0.886
NCI-H727	1.12	1.11	0.797	0.513	0.4	0.49	0.435	0.481	0.411	0.672	0.352	0.392	0.341	0.394	0.395	0.476	0.516	0.543	0.713	0.626
NCI-H838	0.766	0.668	0.371	0.152	0.141	0.532	0.585	0.657	0.629	0.556	0.485	0.575	0.513	0.523	0.578	0.974	0.942	0.948	1.02	0.972
NCI-H1355	0.584	0.66	0.37	0.171	0.152	0.408	0.458	0.455	0.45	0.456	0.468	0.452	0.421	0.395	0.44	0.834	0.827	0.755	0.849	0.544
NCI-H1395	0.669	0.431	0.285	0.311	0.356	0.466	0.422	0.457	0.429	0.405	1.09	1.01	1	1.07	1.06	1.02	0.994	1.17	1.03	0.979
NCI-H1437	0.809	0.751	0.394	0.301	0.312	0.312	0.288	0.297	0.293	0.333	0.492	0.533	0.557	0.53	0.616	0.972	0.945	0.898	1	0.974
NCI-H1651	0.492	0.553	0.328	0.123	0.0939	0.377	0.314	0.314	0.307	0.318	0.83	0.82	0.839	0.794	0.816	0.887	1.03	0.852	1.04	0.893
